These results are taken from patent US11299485B2, “Thiophene derivative and use thereof” (FUJIMOTO CO., LTD., priority 2018, dated 2022).

Each structure is given as a SMILES string.

Holding throughout (assay type): cell-based
Data set [1] concerns TNF-α production. In words: Human TNF-α production suppression test (LPS-stimulated peripheral blood mononuclear cells, ELISA). The settings on record: PBMC, compound 10 μg/mL, 24 hr, control well = 100, read-out: TNF-α production suppressive rate (%). As to the method: Example 50: Human TNF-α Production Suppression Test
Peripheral blood of a healthy adult was collected in a vacuum blood collection tube (Terumo, containing EDTA/2Na), and then diluted two-fold with an equal volume of OTSUKA NORMAL SALINE (Otsuka Pharmaceutical Co., Ltd.). The diluted blood was mixed with Lymphoprep (AXIS-SHIELD) in half the volume of the diluted blood, dispensed into a 15 mL conical tube, and centrifuged at room temperature for 20 min (2,100 rpm). The mononuclear cells accumulated at the interface between Lymphoprep and plasma was transferred to a 50 mL conical tube, diluted with OTSUKA NORMAL SALINE, and the mononuclear cells suspension was centrifuged at room temperature for 10 min (1,150 rpm) and then the supernatant was removed. The mononuclear cells fraction obtained as a precipitate was suspended in an appropriate amount of 10% fetal calf serum (Thermo Fisher Scientific)-containing RPMI1640 medium (Thermo Fisher Scientific, hereinafter abbreviated as medium A), and diluted as appropriate with 0.4% trypan blue solution (Sigma-Aldrich Co. LLC.). The number of viable cells was counted with a hemocytometer (ERMA INC.). It was diluted with medium A such that the value obtained was 5×10^5 cells/mL. On the other hand, 75 μL of medium A, 5 μL of 0.4 mg/mL test compound solution (DMSO solution 10-fold diluted with medium A), and 20 μL of 10 μg/mL lipopolysaccharide (Sigma-Aldrich Co. LLC.) solution (diluted with medium A) were each added in advance to the same well of a Falcon 96-well flat bottom plate (Corning Incorporated), and the above-mentioned cell suspension was dispensed at 0.1 mL/well. 5 μL of DMSO diluted 10-fold with medium A was added to the control well instead of the compound solution. After culturing at 37° C. in a 5% CO2 stream for 24 hr, the culture solution was centrifuged at 4° C., 1,000 rpm for 3 min and the supernatant was recovered. The content of TNF-α in the supernatant was measured using an ELISA kit (Peprotech) according to a conventional method. The amount of TNF-α produced in the well containing the test compound was determined with the amount of TNF-α produced in the control well as 100, and the suppression rate was calculated for each test.
Background: ELISA stands for enzyme-linked immunosorbent assay.

Data set [2] concerns human peripheral blood mononuclear cells (PBMC). The experiment in a line: Cytotoxicity test using human peripheral blood mononuclear cells (PBMC). The conditions noted are these: compound 10 μg/mL, LPS, 24 hr, WST-1 or WST-8. Here is the method:
Example 56: Cytotoxicity Test Using Human Peripheral Blood Mononuclear Cells (PBMC)
Peripheral blood of a healthy adult was collected in a Venoject II vacuum blood collection tube (Terumo, containing EDTA/2Na), and then diluted two-fold with an equal volume of OTSUKA NORMAL SALINE (Otsuka Pharmaceutical Co., Ltd.). The diluted blood was mixed with Lymphoprep (AXIS-SHIELD) in half the volume of the diluted blood, dispensed into a 15 mL conical tube, and centrifuged at room temperature for 20 min (2,100 rpm). The mononuclear cells accumulated at the interface between Lymphoprep and plasma was transferred to a 50 mL conical tube, diluted with OTSUKA NORMAL SALINE, and the mononuclear cells suspension was centrifuged at room temperature for 10 min (1,150 rpm) and then the supernatant was removed. The mononuclear cells fraction obtained as a precipitate was suspended in an appropriate amount of medium A, and diluted as appropriate with 0.4% trypan blue solution (Sigma-Aldrich Co. LLC.). The number of viable cells was counted with a hemocytometer (ERMA INC.). It was diluted with medium A such that the value obtained was 5×10^5 cells/mL. On the other hand, 37.5 μL of medium A, 2.5 μL of 0.4 mg/mL test compound solution (DMSO solution 10-fold diluted with medium A), and 10 μL of 10 μg/mL lipopolysaccharide (Sigma-Aldrich Co. LLC.) solution (diluted with medium A) were each added in advance to the same well of a Falcon 96-well flat bottom plate (Corning Incorporated), and the above-mentioned cell suspension was dispensed at 50 μL/well (final concentration of test compound 10 μg/mL). 2.5 μL of DMSO diluted 10-fold with medium A was added to the control well instead of the compound solution. After culturing at 37° C. in a 5% CO2 stream for 24 hr, the cell survival rate was measured using WST-1 (DOJINDO LABORATORIES) or WST-8 kit (KISHIDA CHEMICAL Co., Ltd.) and according to each instruction manual attached thereto.

Data set [3] deals with Daudi cells. The experiment in a line: Human Burkitt lymphoma cell line Daudi proliferation suppression test. The conditions noted are these: 72 h, compound 10 μM, 3 days, WST-8, read-out: cell survival rate (% of control) Daudi. An excerpt:
Example 54: Human Burkitt Lymphoma Cell Line Daudi Proliferation Suppression Test
Daudi cells (National Institutes of Biomedical Innovation, Health and Nutrition (NIBIOHN), JCRB9071) were suspended in medium B, and diluted as appropriate with 0.4% trypan blue solution (Sigma-Aldrich Co. LLC.). The number of viable cells was counted with a hemocytometer (ERMA INC.). A cell suspension obtained by diluting with medium B such that the value obtained was 1.3×10^5 cells/mL was dispensed into a Falcon 96 well flat bottom plate (Corning Incorporated) at 75 μL/well, and culture was started at 37° C. under 5% CO2 stream. The next day, a solution obtained by diluting 4 mM DMSO solution of the test compound 100-fold with medium B was added by 25 μL to each well (final concentration of test compound 10 μM). 25 μL of a solution obtained by diluting DMSO 100-fold with medium B was added to the control well. After culturing at 37° C. in a 5% CO2 stream for 3 days, the cell proliferation activity was measured according to the instruction manual attached to WST-8 Kit (KISHIDA CHEMICAL Co., Ltd.).
Background: Tetrazolium dyes change colour on reduction, which living cells bring about.

Data set [4] concerns Kasumi-7 cells. In words: Human acute lymphoblastic leukemia cell line Kasumi-7 proliferation suppression test. The settings on record: 72 h, compound 10 μM, 3 days, WST-8, read-out: cell survival rate (% of control) Kasumi-7. An excerpt:
Example 55: Human Acute Lymphoblastic Leukemia Cell Line Kasumi-7 Proliferation Suppression Test
Kasumi-7 cells (NIBIOHN, JCRB1401) were suspended in 20% fetal calf serum (Thermo Fisher Scientific, Inc.)-containing RPMI1640 medium (ATCC, hereinafter abbreviated as medium C), and diluted as appropriate with 0.4% trypan blue solution (Sigma-Aldrich Co. LLC.). The number of viable cells was counted with a hemocytometer (Funakoshi Co., Ltd.). A cell suspension obtained by diluting with medium C such that the value obtained was 1.3×10^5 cells/mL was dispensed into a Falcon 96 well flat bottom plate (Corning Incorporated) at 75 μL/well, and culture was started at 37° C. under 5% CO2 stream. The next day, a solution obtained by diluting 4 mM DMSO solution of the test compound 100-fold with medium C was added by 25 μL to each well (final concentration of test compound 10 μM). 25 μL of a solution obtained by diluting DMSO 100-fold with medium C was added to the control well. After culturing at 37° C. in a 5% CO2 stream for 3 days, the cell proliferation activity was measured according to the instruction manual attached to WST-8 Kit (KISHIDA CHEMICAL Co., Ltd.).

`O=C1CCC(n2cc(-c3cscc3OC3CCCC3)nn2)C(=O)N1` (stereo not shown) [compound 27, 3-{4-[4-(cyclopentyloxy)thiophen-3-yl]-1H-1,2,3-triazol-1-yl}piperidine-2,6-dione]: the inhibition at 10 µg/mL in data set [1] was 39%. Further, the “cell survival rate (% of control) PBMC” value in data set [2] is 107 % of control. Further, the viability at 10 µM in data set [3] is 70%; in data set [4] it was 83%.

`O=C1CCC(n2cc(-c3cscc3OCC3CC3)nn2)C(=O)N1` (stereo not shown) [compound 28, 3-{4-[4-(cyclopropylmethoxy)thiophen-3-yl]-1H-1,2,3-triazol-1-yl}piperidine-2,6-dione]: the inhibition at 10 µg/mL in data set [1] worked out at 37%. Further, the “cell survival rate (% of control) PBMC” value in data set [2] was 89 % of control. Moreover, the results for the viability at 10 µM in data set [3] and in data set [4] were 78% and 75%, respectively.

Turning to `COc1cscc1-c1cn(C2CCC(=O)NC2=O)nn1` (stereo not shown) [compound 19, 3-[4-(4-methoxythiophen-3-yl)-1H-1,2,3-triazol-1-yl]piperidine-2,6-dione], the inhibition at 10 µg/mL in data set [1] was 83%. In addition, the “cell survival rate (% of control) PBMC” value in data set [2] is reported as 99 % of control. Besides, the figures for the viability at 10 µM in data set [3] and in data set [4] were 4% and 24%, respectively.

Consider `COc1c(-c2cn(C3CCC(=O)NC3=O)nn2)csc1Cl` (stereo not shown) [compound 22, 3-[4-(5-chloro-4-methoxythiophen-3-yl)-1H-1,2,3-triazol-1-yl]piperidine-2,6-dione], for which, in data set [1], the inhibition at 10 µg/mL came out at 48%. Also, in data set [2], the “cell survival rate (% of control) PBMC” value is reported as 132 % of control. For the same molecule, the viability at 10 µM in data set [3] came to 81%; in data set [4], 82%.

Regarding `O=C1CCC(n2cc(-c3ccsc3)nn2)C(=O)N1` (stereo not shown) [compound 2, 3-[4-(thiophen-3-yl)-1H-1,2,3-triazol-1-yl]piperidine-2,6-dione], the inhibition at 10 µg/mL in data set [1] is 98%. Besides, the “cell survival rate (% of control) PBMC” value in data set [2] was 100 % of control. Besides, the viability at 10 µM in data set [3] is 71%; in data set [4], 68%.

In the case of `O=C1CCC(n2cc(-c3cscc3OCC3CCCC3)nn2)C(=O)N1` (stereo not shown) [compound 29, 3-{4-[4-(cyclopentylmethoxy)thiophen-3-yl]-1H-1,2,3-triazol-1-yl}piperidine-2,6-dione], in data set [1], the inhibition at 10 µg/mL worked out at 57%. Besides, in data set [2], the “cell survival rate (% of control) PBMC” value is reported as 104 % of control. In addition, the viability at 10 µM in data set [3] was 79%; in data set [4], 84%.

`Cc1cc(-c2cn(C3CCC(=O)NC3=O)nn2)cs1` (stereo not shown) [compound 6, 3-[4-(5-methylthiophen-3-yl)-1H-1,2,3-triazol-1-yl]piperidine-2,6-dione]: the inhibition at 10 µg/mL in data set [1] worked out at 67%. In addition, the “cell survival rate (% of control) PBMC” value in data set [2] is listed as 96 % of control. Also, the viability at 10 µM in data set [3] was found to be 79%; in data set [4], 72%.

Take `C[C@@H]1CN(Cc2ccc(COc3cscc3-c3cn(C4CCC(=O)NC4=O)nn3)cc2)C[C@H](C)O1` (stereo partly drawn) [compound 38, 3-{4-[4-(4-{[(2S,6R)-2,6-dimethylmorpholino]methyl}benzyloxy)thiophen-3-yl]-1H-1,2,3-triazol-1-yl}piperidine-2,6-dione]: in data set [1], the inhibition at 10 µg/mL is 89%. For the same molecule, the “cell survival rate (% of control) PBMC” value in data set [2] is 110 % of control. For the same molecule, the viability at 10 µM in data set [3] is 7%; in data set [4], 23%.

Regarding `O=C1CCC(n2cc(-c3cscc3Br)nn2)C(=O)N1` (stereo not shown) [compound 1, 3-[4-(4-bromothiophen-3-yl)-1H-1,2,3-triazol-1-yl]piperidine-2,6-dione], in data set [1], the inhibition at 10 µg/mL came to 90%. Moreover, the “cell survival rate (% of control) PBMC” value in data set [2] is reported as 106 % of control. The viability at 10 µM in data set [3] was found to be 61%; in data set [4], 65%.

Turning to `O=C1CCC(n2cc(-c3cscc3Cl)nn2)C(=O)N1` (stereo not shown) [compound 14, 3-[4-(4-chlorothiophen-3-yl)-1H-1,2,3-triazol-1-yl]piperidine-2,6-dione], the inhibition at 10 µg/mL in data set [1] came to 75%. The “cell survival rate (% of control) PBMC” value in data set [2] was 113 % of control. In addition, the values for the viability at 10 µM in data set [3] and in data set [4] were 49% and 64%, respectively.
